Experimental data reported in patent publication US20090074791A1, “Phenylisoquinoline and Phenylquinazoline Derivatives” (priority 2007, published 2009).

Molecular target: T1, human PCaR (parathyroid Calcium receptor) (Homo sapiens, UniProt P41180)
T1 construct: expressed in transfected cells; host or cells: CCL39 fibroblasts (stably transfected)
T1 sequence (P41180 20-1078): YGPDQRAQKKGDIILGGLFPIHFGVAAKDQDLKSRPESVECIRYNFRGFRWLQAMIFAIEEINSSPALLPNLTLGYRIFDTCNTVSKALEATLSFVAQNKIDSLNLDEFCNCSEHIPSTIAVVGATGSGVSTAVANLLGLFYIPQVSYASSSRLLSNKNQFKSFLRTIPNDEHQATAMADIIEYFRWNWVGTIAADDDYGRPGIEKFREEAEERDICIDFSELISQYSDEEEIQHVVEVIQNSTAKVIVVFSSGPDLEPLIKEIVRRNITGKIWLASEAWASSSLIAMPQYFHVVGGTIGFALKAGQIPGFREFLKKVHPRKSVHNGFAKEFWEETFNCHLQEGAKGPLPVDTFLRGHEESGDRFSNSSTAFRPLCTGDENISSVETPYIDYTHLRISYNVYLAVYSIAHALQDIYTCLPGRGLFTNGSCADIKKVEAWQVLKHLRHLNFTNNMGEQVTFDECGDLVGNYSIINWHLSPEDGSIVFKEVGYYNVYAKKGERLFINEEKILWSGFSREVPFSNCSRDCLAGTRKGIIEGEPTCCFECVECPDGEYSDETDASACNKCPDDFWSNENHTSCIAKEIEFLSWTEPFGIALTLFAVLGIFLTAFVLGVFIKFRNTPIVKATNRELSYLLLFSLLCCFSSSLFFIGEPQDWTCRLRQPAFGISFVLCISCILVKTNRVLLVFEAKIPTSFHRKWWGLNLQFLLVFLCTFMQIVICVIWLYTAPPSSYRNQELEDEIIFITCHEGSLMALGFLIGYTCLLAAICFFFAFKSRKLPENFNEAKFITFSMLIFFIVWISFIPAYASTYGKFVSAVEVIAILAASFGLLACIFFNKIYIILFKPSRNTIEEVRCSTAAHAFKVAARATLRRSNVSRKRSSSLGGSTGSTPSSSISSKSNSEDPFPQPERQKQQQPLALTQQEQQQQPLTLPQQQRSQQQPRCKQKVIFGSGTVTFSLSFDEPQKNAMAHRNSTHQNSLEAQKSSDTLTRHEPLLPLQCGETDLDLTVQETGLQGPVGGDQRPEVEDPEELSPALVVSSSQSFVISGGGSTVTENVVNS
Assay: Intracellular free calcium assay: inhibition of calcium transients stimulated by extracellular calcium (antagonism at PCaR)
Format: cell-based
Conditions: CCL39 fibroblasts stably transfected with human PCaR; Fluo-3 AM; stimulated with calcium (2.5 mM final)
Experimental: A suitable and well validated assay to measure the anabolic effect on bone formation is the assay to detect intracellular free calcium, i.e. the method to determine antagonism at the parathyroid Calcium receptor (PCaR) consists in measuring the inhibition of intracellular calcium transients stimulated by extracellular calcium:
CCL39 fibroblasts stably transfected with human PCaR are seeded at 40'000 cells/well into 96-well Viewplates and incubated for 24 hours. Medium is then removed and replaced with fresh medium containing 2 μM Fluo-3 AM (Molecular Probes, Leiden, The Netherlands), In routine experiments, cells are incubated at 37° C., 5% CO2 for 1 h. Afterwards, plates are washed twice with mHBS and wells are refilled with 100 μl mHBS containing the test compounds. Incubation is continued at room temperature for 15 minutes. To record changes of intracellular free calcium, plates are transferred to fluorescence-imaging plate reader (Molecular Devices, Sunnyvale, Calif., USA). A baseline consisting in 5 measurements of 0.4 seconds each (laser excitation 488 nm) is recorded. Cells are then stimulated with calcium (2.5 mM final), and fluorescence changes recorded over a period of 3 minutes.

| SMILES | IC50 |
| --- | --- |
| C#CCOc1ccc2nc(-c3nc4cc(C(=O)CCC)c(C)cc4n3C)nc(-c3ccc(C(C)C)cc3)c2c1 [Example 1, 1-{2-[4-(4-Isopropyl-phenyl)-6-prop-2-ynyloxy-quinazolin-2-yl]-1,6-dimethyl-1H-benzoimidazol-5-yl}-butan-1-one] | 0.26 nM |
| C#CCOc1ccc2nc(-c3nc4ccc(C#N)cc4[nH]3)nc(-c3ccc(C(C)C)cc3)c2c1 [Example 3, 2-[4-(4-Isopropyl-phenyl)-6-prop-2-ynyloxy-quinazolin-2-yl]-3H-benzoimidazole-5-carbonitrile] | 0.93 nM |
| C#CCOc1ccc2nc(-c3nc4cc(F)ccc4n3C)nc(-c3ccc(C(C)C)cc3)c2c1 [Example 5, 2-(5-Fluoro-1-methyl-1H-benzoimidazol-2-yl)-4-(4-isopropyl-phenyl)-6-prop-2-ynyloxy-quinazoline] | 1.1 nM |
| C#CCOc1ccc2nc(-c3nc4cc(OC)ccc4n3C)nc(-c3ccc(C(C)C)cc3)c2c1 [Example 6, 4-(4-Isopropyl-phenyl)-2-(5-methoxy-1-methyl-1H-benzoimidazol-2-yl)-6-prop-2-ynyloxy-quinazoline] | 0.7 nM |
| C#CCOc1ccc2nc(-c3nc4ccccc4n3C)nc(-c3ccc(C(C)C)cc3)c2c1 [Example 8, 4-(4-Isopropyl-phenyl)-2-(1-methyl-1H-benzoimidazol-2-yl)-6-prop-2-ynyloxy-quinazoline] | 1.5 nM |
| C#CCOc1ccc2nc(-c3nc4ccc(C(F)(F)F)cc4[nH]3)nc(-c3ccc(C(C)C)cc3)c2c1 [Example 14, 4-(4-Isopropyl-phenyl)-6-prop-2-ynyloxy-2-(6-trifluoromethyl-1H-benzoimidazol-2-yl)-quinazoline] | 0.95 nM |
| C#CCOc1ccc2nc(-c3nc4ccc(OC)cc4[nH]3)nc(-c3ccc(C(C)C)cc3)c2c1 [Example 15, 4-(4-Isopropyl-phenyl)-2-(6-methoxy-1H-benzoimidazol-2-yl)-6-prop-2-ynyloxy-quinazoline] | 0.96 nM |
| C#CCOc1ccc2nc(-c3nc4ccc(Cl)cc4[nH]3)nc(-c3ccc(C(C)C)cc3)c2c1 [Example 16, 2-(6-Chloro-1H-benzoimidazol-2-yl)-4-(4-isopropyl-phenyl)-6-prop-2-ynyloxy-quinazoline] | 0.53 nM |
| C#CCOc1ccc2nc(-c3nc4ccc(C(=O)OCC)cc4[nH]3)nc(-c3ccc(C(C)C)cc3)c2c1 [Example 17, 2-[4-(4-Isopropyl-phenyl)-6-prop-2-ynyloxy-quinazolin-2-yl]-3H-benzoimidazole-5-carboxylic acid ethyl ester] | 0.74 nM |
| C#CCOc1ccc2nc(-c3nc4ccc(C(=O)c5ccccc5)cc4[nH]3)nc(-c3ccc(C(C)C)cc3)c2c1 [Example 18, {2-[4-(4-isopropyl-phenyl)-6-prop-2-ynyloxy-quinazolin-2-yl]-3H-benzoimidazol-5-yl}phenyl-methanone] | 0.68 nM |
| C#CCOc1ccc2nc(-c3nc4ccc(Br)cc4[nH]3)nc(-c3ccc(C(C)C)cc3)c2c1 [Example 19, 2-(6-Bromo-1H-benzoimidazol-2-yl)-4-(4-isopropyl-phenyl)-6-prop-2-ynyloxy-quinazoline] | 0.88 nM |
| C#CCOc1ccc2nc(-c3nc4ccc(F)cc4[nH]3)nc(-c3ccc(C(C)C)cc3)c2c1 [Example 20, 2-(6-Fluoro-1H-benzoimidazol-2-yl)-4-(4-isopropyl-phenyl)-6-prop-2-ynyloxy-quinazoline] | 1.6 nM |

The next lines start with the values.

| IC50 | SMILES |
| --- | --- |
| 1.4 nM | C#CCOc1ccc2nc(-c3nc4cc(F)c(Cl)cc4[nH]3)nc(-c3ccc(C(C)C)cc3)c2c1 [Example 21, 2-(6-Chloro-5-fluoro-1H-benzoimidazol-2-yl)-4-(4-isopropyl-phenyl)-6-prop-2-ynyloxy-quinazoline] |
| 0.63 nM | C#CCOc1ccc2nc(-c3nc4cc(C(F)(F)F)ccc4n3C)nc(-c3ccc(C(C)C)cc3)c2c1 [Example 22, 4-(4-Isopropyl-phenyl)-2-(1-methyl-5-trifluoromethyl-1H-benzoimidazol-2-yl)-6-prop-2-ynyloxy-quinazoline] |
| 0.4 nM | C#CCOc1ccc2nc(-c3nc4cc(C(=O)OCC)ccc4n3C)nc(-c3ccc(C(C)C)cc3)c2c1 [Example 23, 2-[4-(4-Isopropyl-phenyl)-6-prop-2-ynyloxy-quinazolin-2-yl]-1-methyl-1H-benzoimidazole-5-carboxylic acid ethyl ester] |
| 1 nM | C#CCOc1ccc2nc(-c3nc4cc(C(C)=O)ccc4n3C)nc(-c3ccc(C(C)C)cc3)c2c1 [Example 24, 1-{2-[4-(4-Isopropyl-phenyl)-6-prop-2-ynyloxy-quinazolin-2-yl]-1-methyl-1H-benzoimidazol-5-yl}ethanone] |
| 0.44 nM | C#CCOc1ccc2nc(-c3nc4cc(F)c(F)cc4[nH]3)nc(-c3ccc(C(C)C)cc3)c2c1 [Example 25, 2-(5,6-Difluoro-1H-benzoimidazol-2-yl)-4-(4-isopropyl-phenyl)-6-prop-2-ynyloxy-quinazoline] |
| 0.59 nM | C#CCOc1ccc2nc(-c3nc4cccc(C(C)=O)c4[nH]3)nc(-c3ccc(C(C)C)cc3)c2c1 [Example 26, 1-{2-[4-(4-Isopropyl-phenyl)-6-prop-2-ynyloxy-quinazolin-2-yl]-3H-benzoimidazol-4-yl}-ethanone] |
| 0.65 nM | C#CCOc1ccc2nc(-c3nc4ccc(C(=O)OCC)cc4n3C)nc(-c3ccc(C(C)C)cc3)c2c1 [Example 36, 2-[4-(4-Isopropyl-phenyl)-6-prop-2-ynyloxy-quinazolin-2-yl]-3-methyl-3H-benzoimidazole-5-carboxylic acid ethyl ester] |
